Test results reported in US20160090556A1, “PRODUCTS COMPRISING MALODOR REDUCTION MATERIALS” (The Procter & Gamble Company, priority 2014, published 2016).
Where two headings read alike, the source gives them in different places.

How the values were obtained:
[1] = Liquid dish neat product liquid-air partition coefficient; assay type: physicochemical
[2] = Probability of Ingredient Color Instability; assay type: physicochemical; settings: for Comment Code: Probability of Ingredient Color Instability: codes E/F of the Comment Code, Table 1
[3] = class code letter within Comment Code

| Structure (SMILES) | Probability of Ingredient Color Instability (Comment Code E/F) [2, 3] | Probability of Ingredient Color Instability (Comment Code E/F) [2] | further results |
| --- | --- | --- | --- |
| CC(C=O)=CCC1C(C)=CCCC1(C)C (centres unmarked) [Material 1116] | – | – | Comment Code: Log of liquid dish neat product liquid-air partition coefficient ([1]; codes K/L of the Comment Code, Table 1): K (Log of liquid dish neat product liquid-air partition coefficient greater than or equal to −7); Comment Code: Probability of Ingredient Color Instability [2]: F (Probability of Ingredient Color Instability<71%) |
| CC1(C)C2CC=C(C=O)C1C2 (centres unmarked) [Material 70] | F (Probability of Ingredient Color Instability<71%) | – | – |
| CC(CC=O)CCc1ccccc1 (centres unmarked) [Material 807] | – | F (Probability of Ingredient Color Instability<71%) | Log of liquid dish neat product liquid-air partition coefficient (Comment Code K/L) [1]: K (Log of liquid dish neat product liquid-air partition coefficient greater than or equal to −7) |
| CCC1=C(O)C(=O)C(C)O1 (centres unmarked) [Material 259] | F (Probability of Ingredient Color Instability<71%) | – | Log of liquid dish neat product liquid-air partition coefficient (Comment Code K/L) [1, 3]: K (Log of liquid dish neat product liquid-air partition coefficient greater than or equal to −7) |
| CCCCCC=C1CCCC1=O [Material 850] | – | F (Probability of Ingredient Color Instability<71%) | – |
| O=C1CCCCCCCCCCCC(=O)OCCO1 [Material 378] | F (Probability of Ingredient Color Instability<71%) | – | – |
| C=CC(C)(CCC=C(C)C)OC(=O)c1ccccc1N (centres unmarked) [Material 153] | F (Probability of Ingredient Color Instability<71%) | – | – |
| CCCCCCCC(C)=O [Material 840] | – | F (Probability of Ingredient Color Instability<71%) | – |
| CC1=CC(C)C(C=O)C(C)C1 (centres unmarked) [Material 218] | F (Probability of Ingredient Color Instability<71%) | – | – |
| N#CC(=C1CCCCC1)c1ccccc1 [Material 945] | – | F (Probability of Ingredient Color Instability<71%) | Log of liquid dish neat product liquid-air partition coefficient (Comment Code K/L) [1]: K (Log of liquid dish neat product liquid-air partition coefficient greater than or equal to −7) |
| CC1(C)C2CC=C(CC=O)C1C2 (centres unmarked) [Material 973] | – | F (Probability of Ingredient Color Instability<71%) | – |
| Cc1ccc(OC(=O)Cc2ccccc2)cc1 [Material 998] | – | F (Probability of Ingredient Color Instability<71%) | – |
| CC1=CCCC2(C)OC2CCC(C)=CCC1 (racemic) [Material 568] | – | F (Probability of Ingredient Color Instability<71%) | Log of liquid dish neat product liquid-air partition coefficient (Comment Code K/L) [1]: K (Log of liquid dish neat product liquid-air partition coefficient greater than or equal to −7) |
| CC(C)=CCCC1=CCC(C)(C=O)CC1 (centres unmarked) [Material 727] | – | F (Probability of Ingredient Color Instability<71%) | Log of liquid dish neat product liquid-air partition coefficient (Comment Code K/L) [1]: K (Log of liquid dish neat product liquid-air partition coefficient greater than or equal to −7) |
| COC(=O)c1ccccc1NC(O)CC(C)c1ccccc1 (centres unmarked) [Material 1093] | – | F (Probability of Ingredient Color Instability<71%) | – |
| CCCCCCCCCCCC=O [Material 178] | F (Probability of Ingredient Color Instability<71%) | – | Log of liquid dish neat product liquid-air partition coefficient (Comment Code K/L) [1, 3]: K (Log of liquid dish neat product liquid-air partition coefficient greater than or equal to −7) |
| CC(C)(C=O)CC1=CCC2CC1C2(C)C (centres unmarked) [Material 925] | – | F (Probability of Ingredient Color Instability<71%) | Log of liquid dish neat product liquid-air partition coefficient (Comment Code K/L) [1]: K (Log of liquid dish neat product liquid-air partition coefficient greater than or equal to −7) |
| CC(C=O)Cc1ccc(C(C)C)cc1 (centres unmarked) [Material 478] | F (Probability of Ingredient Color Instability<71%) | – | Log of liquid dish neat product liquid-air partition coefficient (Comment Code K/L) [1, 3]: K (Log of liquid dish neat product liquid-air partition coefficient greater than or equal to −7) |
| CCC(C)(C)C1CCC(=O)CC1 [Material 21] | F (Probability of Ingredient Color Instability<71%) | – | – |
| CCCCCCCC1CCCC1=O (centres unmarked) [Material 362] | F (Probability of Ingredient Color Instability<71%) | – | – |
| CCCCCCC1=CCCC1=O [Material 209] | F (Probability of Ingredient Color Instability<71%) | – | – |
| COc1ccc(COC(=O)Cc2ccccc2)cc1 [Material 663] | – | F (Probability of Ingredient Color Instability<71%) | – |
| CCCCCCCCC(C)C=O (centres unmarked) [Material 92] | F (Probability of Ingredient Color Instability<71%) | – | – |
| CCCCCCC1CCCC1=O (centres unmarked) [Material 189] | F (Probability of Ingredient Color Instability<71%) | – | – |
| CC=Cc1ccc(OCc2ccccc2)c(OC)c1 [Material 212] | F (Probability of Ingredient Color Instability<71%) | – | – |
| CCCCCCC(=O)CC [Material 394] | F (Probability of Ingredient Color Instability<71%) | – | – |
| COc1c2ccoc2c(OC)c2oc(=O)ccc12 [Material 199] | F (Probability of Ingredient Color Instability<71%) | – | – |

| Structure (SMILES) | Probability of Ingredient Color Instability (Comment Code E/F) [2, 3] | Probability of Ingredient Color Instability (Comment Code E/F) [2] | further results |
| --- | --- | --- | --- |
| O=CC1CCC2C3CCC(C3)C12 (centres unmarked) [Material 130] | F (Probability of Ingredient Color Instability<71%) | – | – |
| CCC(=O)OCC(=O)OC(C)C1CCCC(C)(C)C1 (centres unmarked) [Material 1009] | – | F (Probability of Ingredient Color Instability<71%) | – |
| C=CC(C)(CCC=C(C)C)OC(=O)c1ccccc1 (centres unmarked) [Material 152] | F (Probability of Ingredient Color Instability<71%) | – | – |
| CC1=CCC(C23CCCC(C)(C2)OC3)C1(C)C (centres unmarked) [Material 571] | – | F (Probability of Ingredient Color Instability<71%) | – |
| CCCCCCCCCC(C)=O [Material 102] | F (Probability of Ingredient Color Instability<71%) | – | – |
| CCC(C)CCCC(C)C=O (centres unmarked) [Material 866] | – | F (Probability of Ingredient Color Instability<71%) | – |
| COC(=O)c1ccccc1N=CC(C)Cc1ccc(C(C)(C)C)cc1 (centres unmarked) [Material 1121] | – | – | Comment Code: Probability of Ingredient Color Instability [2]: F (Probability of Ingredient Color Instability<71%) |
| C=CC(C)(O)CCC=C(C)CCC=C(C)CCC=C(C)C (centres unmarked) [Material 303] | F (Probability of Ingredient Color Instability<71%) | – | – |
| CC1COC(C)(c2ccc3c(c2)C(C)(C)CCC3(C)C)O1 (centres unmarked) [Material 2] | F (Probability of Ingredient Color Instability<71%) | – | – |
| O=C(OC1CCCCC1)c1ccccc1O [Material 482] | F (Probability of Ingredient Color Instability<71%) | – | – |
| C/C=C/CCC1CCCC(=O)O1 (centres unmarked) [Material 187] | F (Probability of Ingredient Color Instability<71%) | – | – |
| CC(C)=CCCC(C)=CCOC(=O)Cc1ccccc1 [Material 300] | F (Probability of Ingredient Color Instability<71%) | – | – |
| CCCCCC1C(=O)CCC1C (centres unmarked) [Material 1053] | – | F (Probability of Ingredient Color Instability<71%) | – |
| O=C1CCCCCCCCCCC(=O)OCCO1 [Material 485] | F (Probability of Ingredient Color Instability<71%) | – | – |
| CC1=CCCC(C)(C)C12CCC(C)O2 (centres unmarked) [Material 1057] | – | F (Probability of Ingredient Color Instability<71%) | – |
| CCc1ccc(CC(C)(C)C#N)cc1 [Material 361] | – | – | Log of liquid dish neat product liquid-air partition coefficient (Comment Code K/L) [1, 3]: K (Log of liquid dish neat product liquid-air partition coefficient greater than or equal to −7) |
| CC1=CCC(C)C(C)C12C=CC(C)O2 (centres unmarked) [Material 192] | – | – | Log of liquid dish neat product liquid-air partition coefficient (Comment Code K/L) [1, 3]: K (Log of liquid dish neat product liquid-air partition coefficient greater than or equal to −7) |
| CC=Cc1ccc(OCC)c(O)c1 [Material 1112] | – | – | Comment Code: Log of liquid dish neat product liquid-air partition coefficient ([1]; code letters K, L): K (Log of liquid dish neat product liquid-air partition coefficient greater than or equal to −7) |
| CC1COCc2cc3c(cc21)C(C)(C)C(C)C3(C)C (centres unmarked) [Material 335] | – | – | Log of liquid dish neat product liquid-air partition coefficient (Comment Code K/L) [1, 3]: K (Log of liquid dish neat product liquid-air partition coefficient greater than or equal to −7); Comment Code: Log of liquid dish neat product liquid-air partition coefficient ([1]; code letters K, L): K (Log of liquid dish neat product liquid-air partition coefficient greater than or equal to −7) |
| CC(C)c1ccc(CO)cc1 [Material 491] | – | – | Log of liquid dish neat product liquid-air partition coefficient (Comment Code K/L) [1, 3]: K (Log of liquid dish neat product liquid-air partition coefficient greater than or equal to −7) |
| CC1=CC2(C=CC(C)O2)C(C(C)C)CC1 (centres unmarked) [Material 68] | – | – | Log of liquid dish neat product liquid-air partition coefficient (Comment Code K/L) [1, 3]: K (Log of liquid dish neat product liquid-air partition coefficient greater than or equal to −7) |
| C=C1CCCC(C)(C)C2C=C(C)CCC12 (centres unmarked) [Material 707] | – | – | Log of liquid dish neat product liquid-air partition coefficient (Comment Code K/L) [1]: K (Log of liquid dish neat product liquid-air partition coefficient greater than or equal to −7) |
| CC1=CCCC2(C)CCC3CC12OC3(C)C (centres unmarked) [Material 726] | – | – | Log of liquid dish neat product liquid-air partition coefficient (Comment Code K/L) [1]: K (Log of liquid dish neat product liquid-air partition coefficient greater than or equal to −7); Comment Code: Log of liquid dish neat product liquid-air partition coefficient ([1]; code letters K, L): K (Log of liquid dish neat product liquid-air partition coefficient greater than or equal to −7) |
| CC1C2CC(CC2C2CCC(O)CC2)C1(C)C (centres unmarked) [Material 230] | – | – | Log of liquid dish neat product liquid-air partition coefficient (Comment Code K/L) [1, 3]: K (Log of liquid dish neat product liquid-air partition coefficient greater than or equal to −7); Comment Code: Log of liquid dish neat product liquid-air partition coefficient ([1]; code letters K, L): K (Log of liquid dish neat product liquid-air partition coefficient greater than or equal to −7) |
| CC(=CC#N)CCc1ccccc1 [Material 505] | – | – | Log of liquid dish neat product liquid-air partition coefficient (Comment Code K/L) [1, 3]: K (Log of liquid dish neat product liquid-air partition coefficient greater than or equal to −7) |
| CC(CCO)CCCC(C)(C)O (centres unmarked) [Material 249] | – | – | Log of liquid dish neat product liquid-air partition coefficient (Comment Code K/L) [1, 3]: K (Log of liquid dish neat product liquid-air partition coefficient greater than or equal to −7) |
